Source: patent US20250000881A1, “TREATMENT OF TREATMENT RESISTANT […] PSILOCYBIN” (COMPASS […], priority 2021, published 2025)
In brackets after ≈: the same amount, converted by molar mass.

Key:
adult subjects with TRD [1] = assay: Phase 2b trial in TRD: Generalised Anxiety Disorder-7 item scale (GAD-7); type: in vivo, human; conditions: 25 mg vs 1 mg group, week 3
Method: (§1) Other objectives were to evaluate the effects of psilocybin on quality of life and wellbeing, functioning and associated disability, cognitive function, and anxiety compared to 1 mg psilocybin on: • (a) Quality of life in subject EuroQoL (EQ)-5 dimension-3 level scale (EQ-5D-3L) score change from Baseline to week 3. This will also be assessed at week 12. This assessment was not mandatory. • (b) Quality of life in caregiver EQ-5D-3L score change from Baseline to week 3. This was assessed at week 12. • (c) Functioning and associated disability in the Sheehan Disability Scale (SDS) score change from Baseline to week 3. This was also assessed at week 12. • (d) Cognitive function as measured by the Digit Symbol Substitution Test (DSST) score change from baseline to week 3. This was assessed at day 1 and week 12. • (e) Level of anxiety as measured using the change in Generalised Anxiety Disorder 7 item Scale (GAD-7) total score change from baseline to week 3. This was assessed at week 12. • (f) Subject determined level of depression as measured using the change in Quick Inventory of Depressive Symptomatology Self-Rated (QIDS-SR-16) total score from Baseline to week 3. […] This was assessed at week 12. • (h) To evaluate the impact of different psilocybin doses on real life functional activity estimated from passive data streams collected on a mobile app on subjects' mobile phones. […]

adult subjects with TRD [2] = assay: Phase 2b trial in TRD: participants starting new treatment for depression; type: in vivo, human
Method: All subjects were asked to remain off their antidepressant medications for at least 3 weeks following the psilocybin session until the primary endpoint assessment, or longer. Rescue medications were allowed and described in the Rescue Medications section below. Subjects who restarted their antidepressant medications during the first 3 weeks after the psilocybin treatment administration were assessed for reasons of resuming their medications and followed until 12 weeks post-psilocybin administration.

adult subjects with TRD [3] = assay: Phase 2b trial in TRD: QIDS-SR-16 self-reported depression; type: in vivo, human; conditions: 25 mg vs 1 mg group, week 3
Method: as §1

Structure (SMILES): CN(C)CCc1c[nH]c2cccc(OP(=O)(O)O)c12 [COMP360, psilocybin]
- solubility (Solubility in water): ~15 mg/mL (≈ 52.8 mM)
- GAD-7 total score, least squares mean (95% confidence intervals) treatment difference (adult subjects with TRD [1]): −1.79 (−3.35, −0.23)
- Participants started new treatment for depression (adult subjects with TRD [2]; 1 mg (N = 79), Day 2): 0 n
- Participants started new treatment for depression (adult subjects with TRD [2]; 10 mg (N = 75), Day 2): 0 n
- Participants started new treatment for depression (adult subjects with TRD [2]; 25 mg (N = 79), Day 2): 0 n
- Participants started new treatment for depression (adult subjects with TRD [2]; 25 mg (N = 79), Week 1): 0 n
- Participants started new treatment for depression (adult subjects with TRD [2]; Overall (N = 233), Day 2): 0 n
- QIDS-SR-16 total score, least squares mean treatment difference (95% confidence intervals) (adult subjects with TRD [3]): −2.78 (−4.62, −0.95)
